Measured values published in article PMC8232704, “Hydrophobic Tagging-Mediated Degradation of Transcription Coactivator SRC-1” (International Journal of Molecular Sciences, 2021).
pKi: −log10 of the molar value. Bridge positions count the residues as written; N and C are the ends. Square brackets hold non-standard residues; d marks the D form. Peptide text beside a SMILES is read from it. N(1-adamantyl)Gly = O=C(O)CNC12CC3CC(CC(C3)C1)C2; Cha = N[C@@H](CC1CCCCC1)C(=O)O; S5 = C=CCCC[C@](C)(N)C(=O)O; PEG3 = NCCOCCOCCOCCC(=O)O

What was measured:
[1] = target: T1, PAS-B domain of human SRC-1 (residues 257–385) (Homo sapiens, UniProt Q15788); experiment: Competitive fluorescence polarization (FP) assay, fluorescein-labeled STAT-6 peptide binding to SRC-1; conditions: 100 nM fluorescein-labeled 15-mer STAT-6 peptide, 1 μM PAS-B domain of SRC-1, HEPES pH 7.4, SD from three independent experiments
T1 construct: PAS-B domain of human SRC-1 (residues 257–385); His6; made in house; host or cells: Rosetta E. coli
T1 sequence (Q15788 257-385): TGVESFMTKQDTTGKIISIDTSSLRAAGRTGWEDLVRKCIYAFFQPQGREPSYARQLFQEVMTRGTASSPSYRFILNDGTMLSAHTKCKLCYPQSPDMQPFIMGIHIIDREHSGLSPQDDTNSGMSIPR
Procedure: A plasmid expressing the PAS-B domain of human SRC-1 (residues 257–385) tagged with His6 was provided by John A. Robinson (University of Zürich at Switzerland). It was transformed into Rosetta E. coli cells. SRC-1 protein purification was performed as described previously.
After incubating 100 nM of fluorescein-labeled 15-mer STAT-6 peptide with 1 μM of PAS-B domain of SRC-1 in a binding buffer (50 mM HEPES pH 7.4, 150 mM NaCl, 3.4 mM EDTA, and 0.01% Tween 20) in a black Greiner 384-well plate for 30 min, indicated concentrations of YL2 and YL2-HyT1 through YL2-HyT6 were added to each well. After incubation for another 1.5 h, fluorescence polarization was measured on a Tecan Infinite F200 Pro microplate reader (excitation wavelength: 485 nm, emission wavelength: 535 nm). The Ki values of the compounds in the competition assay were determined using the following equation [43]. (1) Ki=[I]50/[L]50/KD+[P]0/KD+1 where [I]50 is the concentration of the free inhibitor at 50% inhibition, KD is the dissociation constant of the protein–ligand complex, [L]50 is the concentration of the free labeled ligand at 50% inhibition, and [P]0 is the concentration of the free protein at 0% inhibition.

[2] = target: T2, SRC-1 in MDA-MB-231 cells (Homo sapiens, UniProt Q15788); experiment: Immunoblot analysis of cellular SRC-1 levels (SRC-1 degradation); format: cell-based; conditions: for SRC-1 (%): normalized to GAPDH and DMSO controls
T2 construct: endogenous in cells; host or cells: MDA-MB-231
T2 sequence (Q15788 whole entry): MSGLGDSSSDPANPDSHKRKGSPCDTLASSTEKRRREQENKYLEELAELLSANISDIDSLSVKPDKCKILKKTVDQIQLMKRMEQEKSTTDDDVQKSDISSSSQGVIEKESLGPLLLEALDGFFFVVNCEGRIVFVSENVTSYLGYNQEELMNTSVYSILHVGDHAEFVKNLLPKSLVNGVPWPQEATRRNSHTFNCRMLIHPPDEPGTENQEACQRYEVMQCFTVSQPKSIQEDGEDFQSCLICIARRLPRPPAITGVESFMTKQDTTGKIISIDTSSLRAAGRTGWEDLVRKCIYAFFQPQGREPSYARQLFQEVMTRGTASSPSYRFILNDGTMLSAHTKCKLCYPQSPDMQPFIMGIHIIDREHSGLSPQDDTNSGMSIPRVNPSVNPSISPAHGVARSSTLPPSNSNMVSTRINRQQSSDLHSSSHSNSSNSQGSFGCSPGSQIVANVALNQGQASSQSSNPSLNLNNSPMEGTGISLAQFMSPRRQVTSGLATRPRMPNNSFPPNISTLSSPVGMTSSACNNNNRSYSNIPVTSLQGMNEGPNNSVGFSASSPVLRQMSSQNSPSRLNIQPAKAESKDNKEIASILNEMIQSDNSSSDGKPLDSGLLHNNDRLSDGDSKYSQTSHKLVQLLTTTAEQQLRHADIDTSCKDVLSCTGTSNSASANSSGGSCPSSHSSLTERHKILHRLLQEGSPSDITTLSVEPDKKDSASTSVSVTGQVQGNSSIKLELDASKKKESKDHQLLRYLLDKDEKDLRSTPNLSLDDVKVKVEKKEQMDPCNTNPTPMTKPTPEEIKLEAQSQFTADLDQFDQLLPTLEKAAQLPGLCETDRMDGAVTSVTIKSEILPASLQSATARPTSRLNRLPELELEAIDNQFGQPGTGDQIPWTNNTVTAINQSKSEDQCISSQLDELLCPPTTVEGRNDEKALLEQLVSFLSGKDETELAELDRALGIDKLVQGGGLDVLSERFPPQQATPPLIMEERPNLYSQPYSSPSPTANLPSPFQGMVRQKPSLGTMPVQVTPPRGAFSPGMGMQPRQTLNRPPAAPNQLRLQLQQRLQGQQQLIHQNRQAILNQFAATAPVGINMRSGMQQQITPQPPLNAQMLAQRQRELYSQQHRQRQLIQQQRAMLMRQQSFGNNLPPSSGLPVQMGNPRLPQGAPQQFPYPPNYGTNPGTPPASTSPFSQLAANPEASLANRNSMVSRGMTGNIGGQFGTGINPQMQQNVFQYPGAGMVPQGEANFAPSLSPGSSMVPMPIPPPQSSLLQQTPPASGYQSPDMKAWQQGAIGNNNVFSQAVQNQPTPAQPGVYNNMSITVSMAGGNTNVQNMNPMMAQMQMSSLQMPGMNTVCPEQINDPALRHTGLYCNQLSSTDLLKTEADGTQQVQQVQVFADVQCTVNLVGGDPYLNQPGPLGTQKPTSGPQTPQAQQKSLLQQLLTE
Procedure: MDA-MB-231 and HEK293T cells were cultured in a medium containing Dulbecco’s modified eagle medium (DMEM) supplemented with 1% penicillin–streptomycin (PS) and 10% FBS with 5% CO2 at 37 °C.
MDA-MB-231 cells were seeded into 6-well pates (Corning, 3506) at a density of 6 × 10^5 cell per well. After incubation at 37 °C for 24 h, cells were treated with synthesized compounds in Opti-MEM medium for 12, 18, or 24 h. Cells were washed twice with cold Dulbecco’s phosphate-buffered saline (DPBS) prior to cell lysis using a cell lysis buffer (1% Triton X-100, 150 mM NaCl, 50 mM Tris-HCl pH 7.6, 0.1% SDS, 0.5% sodium deoxycholate, and 1 × protease inhibitor cocktail) on ice. Cell lysates were centrifuged at 13,000 rpm at 4 °C for 15 min. The supernatant was collected, and protein concentration was determined using Pierce^TM 660nm protein assay. A 6 × SDS loading buffer was added to the cell lysate and incubated at 95 °C for 5 min. The same amount of protein was subjected to SDS-PAGE and transferred to PVDF membranes. After blocking membranes with 5% skim milk in TBST (Tris-buffered saline with 0.05% Tween 20), membranes were incubated with a primary antibody at 4 °C overnight. Membranes were then incubated with HRP-linked secondary antibody at rt for 1 h and developed with Pico ECL solution. In MG-132 and 17-AAG treatment experiments, MDA-MB-231 cells were cotreated with synthesized compounds and MG-132 (5 μM) or 17-AAG (1 μM) at 37 °C for 18 h.

[3] = system: E-cadherin mRNA in MDA-MB-231 cells; experiment: RT-qPCR of E-cadherin mRNA; format: cell-based, human; conditions: 18 h, RT-qPCR normalized to 18S
Procedure: Quantitative real-time PCR was performed for CSF-1, E-cadherin, and 18S (as a reference gene) mRNAs. MDA-MB-231 cells (1.2 × 10^5 cells/well) were seeded into a 12-well plate and incubated at 37 °C with 5% CO2 for 24 h. These cells were treated with indicated compounds (YL2, adamantane, ND1-YL2, or YL2-HyT6) for 18 h in Opti-MEM medium. After cells were washed with cold DPBS, mRNAs were isolated from these cells using an AccuPrep Universal RNA extraction kit (Bioneer, Daejeon, Korea). Then 1.5 µg of mRNAs were reverse-transcribed using AccuPower RocketScript Cycle RT PreMix (Bioneer) to generate complementary DNAs. RT-qPCR for CSF-1, E-cadherin, and 18S was performed with a StepOnePlus Real-Time PCR System (Applied Biosystems, Waltham, MA, USA) and SYBR Green mix (Applied Biosystems) according to the manufacturer’s instructions with gene-specific primers (Table 1).

- pKi [1]: 6.63
- SRC-1 (%) ([2]; MDA-MB-231 cells, 10 μM compound, 18 h): 30%
- SRC-1 (%) ([2]; MDA-MB-231 cells, 20 μM compound, 18 h): 20%
- Time to recovery of SRC-1 after washing out compound ([2]; MDA-MB-231 cells, 20 μM for 18 h, then washed away): ≤ 12 h
- Time-dependent SRC-1 degradation ([2]; MDA-MB-231 cells, 20 μM, various time periods up to 24 h): evidently degraded after 6 h
- SRC-1 (%) ([2]; MDA-MB-231 cells, 50 μM compound, 18 h): 13%
- DC50 ([2]; MDA-MB-231 cells, 18 h, immunoblot quantitation (Figure S4), three independent experiments, read-out: DC50 (reduction of cellular SRC-1 levels)): ~5000 nM
Compound: CC(C)C[C@H](NC(=O)CCOCCOCCOCCNC(=O)CNC12CC3CC(CC(C3)C1)C2)C(=O)N[C@@H](CC(C)C)C(=O)N1CCC[C@H]1C(=O)N1CCC[C@H]1C(=O)N[C@H](C(=O)N[C@@H](CCC(=O)O)C(=O)N[C@@H](CCC(N)=O)C(=O)N[C@@H](CC(=O)O)C(=O)N[C@@H](CC(C)C)C(=O)N[C@@]1(C)CCC/C=C\CCC[C@@](C)(C(=O)N[C@@H](Cc2ccc(O)cc2)C(N)=O)NC(=O)[C@H](CC2CCCCC2)NC(=O)[C@H](CC(C)C)NC(=O)[C@H](CCCCN)NC1=O)[C@@H](C)O [YL2-HyT6] (H-[N(1-adamantyl)Gly][PEG3]LLPPTEQDL[S5]KL[Cha][S5]Y-NH2; staple (Z) 12-16; C-terminus assumed)
- SRC-1 degradation activity compared within YL2-HyT1–6 ([2]; MDA-MB-231 cells, 12, 18 and 24 h): most effective SRC-1 degradation activity at all three time points
- SRC-1 levels on cotreatment with Hsp90 inhibitor 17-AAG ([2]; MDA-MB-231 cells, YL2-HyT6 2.5 μM with 17-AAG (1 μM), 18 h): SRC-1 degradation even at a concentration that did not affect SRC-1 levels previously
- SRC-1 levels on cotreatment with proteasome inhibitor MG-132 ([2]; MDA-MB-231 cells, cotreated with MG-132 (5 μM), 18 h): SRC-1 levels were not changed in the presence of MG-132
- E-cadherin mRNA expression level [3]: increase in E-cadherin
